Measured values published in US9611286B2, “Ruthenium carbon monoxide releasing molecules and uses thereof” (Alfama, Inc., priority 2011, dated 2017).

How the values were obtained:
P. berghei ANKA [1] = assay: Malaria-associated acute lung injury (M-AALI) model; assay type: in vivo, DBA/2 mice; conditions: i.v. twice daily between days 2 and 4 after infection
Description: The M-AALI model, based on the infection of DBA-2 mice with P. berghei ANKA, is characterized by dyspnea, airway obstruction, hypoxemia, pulmonary exudate and elevated VEGF levels in plasma, followed by death between days 7 and 12 after infection.
Red blood cells infected with green fluorescent protein (GFP)-transgenic P. berghei ANKA and P. berghei ANKA was used to infect mice (see, e.g., Franke-Fayard et al. Mol Biochem Parasitol (2004) 137:23-33). Cryopreserved parasites were passed once through C57BL/6 or DBA-2 mice before being used to infect experimental animals. […] The infected mice were monitored daily for clinical symptoms of experimental cerebral malaria (ECM) including hemi- or paraplegia, head deviation, tendency to roll over on stimulation, ataxia and convulsions, or ALI, including dyspnea. […] Parasitemia was assessed by flow cytometry for mice infected with GFP-expressing P. berghei ANKA, using tail blood, as previously described (see, e.g., Pamplona et al., Nat Med (2007) 13:703-710). Mean parasitemia is expressed as percentage of infected red blood cells. For mice infected with non-GFP P. berghei parasitemia was assessed daily by microscopic counting of Giemsa-stained thin blood smears. Mean parasitemia is expressed as percentage of infected red blood cells. Survival is expressed as percentage. […]

P. berghei ANKA [2] = assay: Parasite r18S (pRBC accumulation) in brain by qRT-PCR; assay type: in vivo, C57BL/6 mice
Description: (§1) Mice were sacrificed, when infected control mice presented signs of ECM, and perfused intracardially with PBS to remove circulating RBC and leukocytes from the organs. RNA was isolated from brains, livers and lungs using Trizol Reagent (Invitrogen, Life technologies), according to the manufacturer's recommendation. The synthesis of the first-strand cDNA from the RNA templates was carried out using the Transcriptor First Strand cDNA Synthesis Kit (Roche). RT-PCR reactions were performed in the presence of SYBER Green (SYBER Green PCR master mix, Applied Biosystems) on an ABI PRISM 7500Fast (Applied Biosystem). Oligonucleotides used for the specific amplification of genes include:
(§2) The relative changes in gene expression between experimental and control groups were calculated by the Pfaffl method using hprt as internal control gene. Statistical Analysis

[3] = test system: Myoglobin (Mb) from equine skeletal muscle; assay: Deoxy-myoglobin (Mb) carbonylation assay, CO release; assay type: biochemical; conditions: after 15 minutes of incubation with deoxy-Mb, PBS pH 7.4
Description: The CO donation capacity of Compound 1 by a deoxy-myoglobin (Mb) carbonylation assay was then evaluated (see, e.g., Clark et al., Am J Pathol (1992) 140:325-336).
The Mb assay was performed as described in Clark et al., Circ. Res. (2003) 93:2-8. A stock solution of Myoglobin (Mb) from equine skeletal muscle was prepared by dissolving the protein in PBS7.4. From this solution aliquots were taken to a cuvette (final concentration between ca. 60 μM) and Na2S2O4 in PBS, pH 7.4 (10 mg/mL solution; 0.1% final concentration) was added to convert met-Mb into deoxy-Mb. The reactions were done by mixing in the same cuvette and by this order, the Mb stock solution, the Na2S2O4 solution, a calculated amount of a solution of Compound I and adding PBS to obtain the desired final volume. […] Two controls were done in duplicate, the negative control (0% CO-Mb), a deoxy-Mb solution and the positive control (100% CO-Mb), obtained by bubbling pure CO gas into the deoxy-Mb solution for 10-15 min. The experimental spectrum was fitted as a weighted sum of the deoxy-Mb and the CO-Mb spectra. […] The absorbance spectrum was converted into a percentage of CO-Mb and the amount of CO liberated was calculated as molar equivalents of CO based on the initial concentration of Compound I (see FIG. 10).

HO-1 = HO-1 mRNA expression by qRT-PCR in infected mice; assay type: in vivo, C57BL/6 mice; conditions: day 3 after infection
Description: as §1, §2

P. berghei ANKA GFP = assay: Adjunctive/adjuvant therapy with artesunate after onset of ECM; assay type: in vivo, C57BL/6 mice; conditions: during administration of AS, between days 5 and 6
Description: Thus, the inventors decided to test Compound 1 as an adjunctive and adjuvant therapy during the acute phase of ECM. […] Therefore, the inventors assessed the combination of Compound 1 and AS on parasite clearance and clinical recovery from ECM. Two AS and Compound 1 combinations were tested: (i) Adjunctive therapy: AS and Compound 1 were administered concomitantly for 2 days after the onset of CM followed by a 3-day treatment with Compound 1 alone, or (ii) Adjuvant therapy: AS was administered on the first 2 days after CM onset followed by Compound 1 administration for 3 more days.
In order to evaluate the clinical presentation of experimental cerebral malaria, a classification was used in clinical stages from 0 to 4 (see, e.g., Bienvenu et al., Acta Trop (2008) 106:104-8; Franklin et al., Proc Natl Acad Sci USA (2011) 108:3689-94). Briefly, stage 0 indicates no detectable clinical symptoms, stage 1, ruffled fur; stage 2, ruffled fur and unbalancing; stage 3, limb paralysis and respiratory distress and stage 4, convulsions, coma or death. The mice were clinically classified before and after the treatment to evaluate the clinical recovery.
CORM-2 (Sigma-Aldrich) and Compound 2 were solubilized using 10% dimethyl sulfoxide (DMSO; Sigma-Aldrich) in PBS. CORM-3 and Compound 1 were solubilized in PBS (lx). CORM-2 solution (20 mg/kg of body weight) was administered intravenously (i.v.) according to the chosen schedules. […] As vehicle control, we used a solution of 10% DMSO in PBS administered i.v. The concentrations of CORM-2 used in the present study were based on previous reports (see, e.g., Chen et al. Am. J. Pathol. (2009) 175:422-429; Sun et al., World. J. Gastroenterol. (2008) 14:547-553). Artesunate is presented as a powder of artesunic acid. Artesunate (AS) solution was prepared by dissolving 60 mg of anhydrous artesunic acid in 1 ml of sodium bicarbonate (5%) to form sodium artesunate and then diluted in 5 ml of NaCl (0.9%). An AS solution (i.p.) was administered at 40 mg/Kg/day, as described previously (see, e.g., Bienvenu, Acta Trop (2008) 106:104-108). The AS treatment was started when the infected non-treated mice presented the clinical stage 1 for experimental cerebral malaria.

[4] = Brain histology (hematoxylin and eosin) in ECM; assay type: in vivo, C57BL/6 mice; conditions: P. berghei ANKA-infected mice
Description: (§3) For evaluation of histological features, mice were deeply anesthetized until cessation of breathing when infected control mice presented signs of ECM or ALI. The livers, lungs, and brains were removed and fixed in 10% buffered formalin for 24-72 h. Four-micron sections were cut from paraffin-embedded tissues and stained with hematoxylin and eosin according to standard procedures. Histological analyses were performed on a Leica microscope DM 2500 (Leica Microsystems).

[5] = Lung histology (hematoxylin and eosin) in M-AALI; assay type: in vivo; conditions: infected DBA/2 mice
Description: as §3

[6] = Quantification of COHb in peripheral blood; assay type: in vivo, C57BL/6 mice; conditions: infected mice, day 3 after infection
Description: Blood was collected from the tail of the mice to capillary tubes (VWR) with heparin (100 i.u./ml in PBS 1×; LEO Pharma Inc.), transferred into AVOXimeter 4000 cuvettes (ITC) where the levels of carboxyhemoglobin (COHb), oxyhemoglobin (02Hb) and methemoglobin (MetHb) were measured in a portable AVOXimeter 4000 CO-oximeter (ITC). Results are shown as mean percentage of total hemoglobin species in circulation.

C[SH]([C@@H]1OC(CO)[C@H](O)[C@H](O)C1O)[Ru]([Cl])([Cl])([CH]=O)([CH]=O)[CH]=O (some centres unmarked) [Compound 1, Tricarbonyldichloro(methylthiogalactopyranoside) Ru(II)]
mice that developed M-AALI (P. berghei ANKA [1]): None | pRBC accumulation in the brain vs Compound 2-treated mice (P. berghei ANKA [2]): significantly lower | CO transferred to Mb [3]: approximately 1 equivalent of CO | HO-1 mRNA expression in brain vs non-infected and Compound 2-treated mice (HO-1): not significantly different | interference with the anti-malarial action of AS (P. berghei ANKA GFP): did not interfere with the anti-malarial action of AS in vivo | neuropathologic features in brain sections [4]: less hemorrhages, and the vessels had lower accumulation of pRBC and leukocytes | vascular congestion with pRBCs in lung tissue [5]: major differences in the vascular congestion with pRBCs | COHb levels in the blood [6]: without causing measurable increase in COHb levels
